Values of other authors, collected in patent US20050244461A1, “Controlled release drug delivery systems and methods for treatment of an eye” (Allergan, Inc., priority 2004, published 2005).

Conditions: in vivo efficacy; 25 mg hydrocortisone equivalent to 1 mg dexamethasone; Goodman and Gilman

SMILES: C[C@]12CCC(=O)C=C1CC[C@@H]1[C@@H]2[C@@H](O)C[C@@]2(C)[C@H]1CC[C@]2(O)C(=O)CO [hydrocortisone]
- Potency relative to dexamethasone: approximately twentyfivefold less potent than dexamethasone
